From patent US6541045B1, “Herbal composition and method for combating inflammation” (Nutraceutical Corporation, priority 2002, dated 2003)

Target: COX-1 (Homo sapiens, UniProt P23219)
Experiment: COX-1 inhibition, resveratrol versus Japanese knotweed
Type: biochemical
Conditions: pure resveratrol (99%) compared with Japanese knotweed

Sequence of COX-1 (P23219 24-599): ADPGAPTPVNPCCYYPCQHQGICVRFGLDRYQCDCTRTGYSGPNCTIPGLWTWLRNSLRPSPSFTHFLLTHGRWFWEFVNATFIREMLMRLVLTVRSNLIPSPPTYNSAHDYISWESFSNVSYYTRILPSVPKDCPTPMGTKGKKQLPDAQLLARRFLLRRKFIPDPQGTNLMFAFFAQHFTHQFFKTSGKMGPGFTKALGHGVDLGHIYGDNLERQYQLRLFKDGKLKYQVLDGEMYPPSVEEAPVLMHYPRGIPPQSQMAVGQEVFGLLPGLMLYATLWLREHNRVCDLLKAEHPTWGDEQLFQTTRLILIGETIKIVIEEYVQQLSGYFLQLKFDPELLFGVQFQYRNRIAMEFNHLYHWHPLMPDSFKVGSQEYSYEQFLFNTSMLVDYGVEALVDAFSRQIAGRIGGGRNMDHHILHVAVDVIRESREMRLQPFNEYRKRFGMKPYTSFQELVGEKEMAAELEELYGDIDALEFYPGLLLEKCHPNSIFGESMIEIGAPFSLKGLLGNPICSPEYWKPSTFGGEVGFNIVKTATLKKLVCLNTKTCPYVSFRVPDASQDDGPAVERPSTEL

Oc1ccc(C=Cc2cc(O)cc(O)c2)cc1 [resveratrol]
effectiveness for COX-1: just as effective
